Drawing on US9914747B2 (priority 2014, dated 2018), this text covers EC50 for 15 molecules.

The assay relates to recombinant NL4-3 virus (NLRluc, Renilla luciferase in nef, Gag P373S). Briefly: HIV Cell Culture Assay (luciferase reporter virus in MT-2 cells). It counts as cell-based. As to conditions: NL43, read-out: WT EC50. As to the method:
MT-2 cells and 293T cells were obtained from the NIH AIDS Research and Reference Reagent Program. MT-2 cells were propagated in RPMI 1640 media supplemented with 10% heat inactivated fetal bovine serum, […]. The 293T cells were propagated in DMEM media supplemented with 10% heat inactivated fetal bovine serum (FBS), 100 units/mL penicillin G and 100 μg/mL streptomycin. The proviral DNA clone of NL4-3 was obtained from the NIH AIDS Research and Reference Reagent Program. A recombinant NL4-3 virus, in which a section of the nef gene from NL4-3 was replaced with the Renilla luciferase gene, was used as a reference virus. In addition, residue Gag P373 was converted to P373S. Briefly, the recombinant virus was prepared by transfection of the altered proviral clone of NL4-3. Transfections were performed in 293T cells using LipofectAMINE PLUS from Invitrogen (Carlsbad, Calif.), according to manufacturer's instruction. The virus was titered in MT-2 cells using luciferase enzyme activity as a marker. Luciferase was quantitated using the Dual Luciferase kit from Promega (Madison, Wis.), with modifications to the manufacturer's protocol. The diluted Passive Lysis solution was pre-mixed with the re-suspended Luciferase Assay Reagent and the re-suspended Stop & Glo Substrate (2:1:1 ratio). Fifty (50) […] of the mixture was added to each aspirated well on assay plates and luciferase activity was measured immediately on a Wallac TriLux (Perkin-Elmer). Antiviral activities of inhibitors toward the recombinant virus were quantified by measuring luciferase activity in cells infected for 4-5 days with NLRluc recombinants in the presence serial dilutions of the inhibitor. Biological Data Key for EC50
With `C=C(C)[C@@H]1CC[C@]2(/C=C/C(=O)NCCCN3CCS(=O)(=O)CC3)CC[C@]3(C)[C@H](CC[C@@H]4[C@@]5(C)CC=C(c6ccc(C(=O)O)cc6)C(C)(C)[C@@H]5CC[C@]43C)[C@@H]12` [Example 4, 4-((1R,3aR,5aR,5bR,7aR,11aS,11bR,13aR,13bR)-3a-((E)-3-((3-(1,1-dioxidothiomorpholino)propyl)amino)-3-oxoprop-1-en-1-yl)-5a,5b,8,8,11a-pentamethyl-1-(prop-1-en-2-yl)-2,3,3a,4,5,5a,5b,6,7,7a,8,11,11a,11b,12,13,13a,13b-octadecahydro-1H-cyclopenta[a]chrysen-9-yl)benzoic acid], the EC50 was over 100 nM.
The value for `CC(C)[C@@H]1CC[C@]2(C(O)CNCCN(C)C)CC[C@]3(C)[C@H](CC[C@@H]4[C@@]5(C)CC=C(C6=CC[C@](CF)(C(=O)O)CC6)C(C)(C)[C@@H]5CC[C@]43C)[C@@H]12` (single isomer, unassigned) [Example 14] was under 100 nM; that for `CC(C)[C@@H]1CC[C@]2([C@H](O)CN(CCN(C)C)Cc3ccc(Cl)cc3)CC[C@]3(C)[C@H](CC[C@@H]4[C@@]5(C)CC=C(C6=CC[C@](CF)(C(=O)O)CC6)C(C)(C)[C@@H]5CC[C@]43C)[C@@H]12` (single isomer, unassigned) [Example 15] was under 100 nM.
As for `C=C(C)[C@@H]1CC[C@]2(/C=C/CN3CCS(=O)(=O)CC3)CC[C@]3(C)[C@H](CC[C@@H]4[C@@]5(C)CC=C(c6ccc(C(=O)O)cc6)C(C)(C)[C@@H]5CC[C@]43C)[C@@H]12` [Example 6, 4-((1R,3aR,5aR,5bR,7aR,11aS,11bR,13aR,13bR)-3a-((E)-3-(1,1-dioxidothiomorpholino)prop-1-en-1-yl)-5a,5b,8,8,11a-pentamethyl-1-(prop-1-en-2-yl)-2,3,3a,4,5,5a,5b,6,7,7a,8,11,11a,11b,12,13,13a,13b-octadecahydro-1H-cyclopenta[a]chrysen-9-yl)benzoic acid], the figure is under 100 nM.
As for `C=C(C)[C@@H]1CC[C@]2(/C=C/C(=O)N(C)OC)CC[C@]3(C)[C@H](CC[C@@H]4[C@@]5(C)CC=C(c6ccc(C(=O)O)cc6)C(C)(C)[C@@H]5CC[C@]43C)[C@@H]12` [Example 5, 4-((1R,3aR,5aR,5bR,7aR,11aS,11bR,13aR,13bR)-3a-((E)-3-(methoxy(methyl)amino)-3-oxoprop-1-en-1-yl)-5a,5b,8,8,11a-pentamethyl-1-(prop-1-en-2-yl)-2,3,3a,4,5,5a,5b,6,7,7a,8,11,11a,11b,12,13,13a,13b-octadecahydro-1H-cyclopenta[a]chrysen-9-yl)benzoic acid], the figure is under 100 nM; as for `C=C(C)[C@@H]1CC[C@]2(C(=O)C(=O)NCCN3CCS(=O)(=O)CC3)CC[C@]3(C)[C@H](CC[C@@H]4[C@@]5(C)CC=C(c6ccc(C(=O)O)cc6)C(C)(C)[C@@H]5CC[C@]43C)[C@@H]12` [Example 9, 4-((1R,3aS,5aR,5bR,7aR,11aS,11bR,13aR,13bR)-3a-(2-((2-(1,1-dioxidothiomorpholino)ethyl)amino)-2-oxoacetyl)-5a,5b,8,8,11a-pentamethyl-1-(prop-1-en-2-yl)-2,3,3a,4,5,5a,5b,6,7,7a,8,11,11a,11b, 12,13,13a,13b-octadecahydro-1H-cyclopenta[a]chrysen-9-yl)benzoic acid], under 100 nM.
Consider `C=C(C)[C@@H]1CC[C@]2(CCN(C)CCN3CCS(=O)(=O)CC3)CC[C@]3(C)[C@H](CC[C@@H]4[C@@]5(C)CC=C(c6ccc(C(=O)O)cc6)C(C)(C)[C@@H]5CC[C@]43C)[C@@H]12` [Example 12, 4-((1R,3aR,5aR,5bR,7aR,11aS,11bR,13aR,13bR)-3a-(2-((2-(1,1-dioxidothiomorpholino)ethyl)(methyl)amino)ethyl)-5a,5b,8,8,11a-pentamethyl-1-(prop-1-en-2-yl)-2,3,3a,4,5,5a,5b,6,7,7a,8,11,11a,11b,12,13,13a,13b-octadecahydro-1H-cyclopenta[a]chrysen-9-yl)benzoic acid], for which the EC50 is under 100 nM.
As for `C=C(C)[C@@H]1CC[C@]2(/C=C/C(=O)N3CCS(=O)(=O)CC3)CC[C@]3(C)[C@H](CC[C@@H]4[C@@]5(C)CC=C(c6ccc(C(=O)O)cc6)C(C)(C)[C@@H]5CC[C@]43C)[C@@H]12` [Example 3, 4-((1R,3aR,5aR,5bR,7aR,11aS,11bR,13aR,13bR)-3a-((E)-3-(1,1-dioxidothiomorpholino)-3-oxoprop-1-en-1-yl)-5a,5b,8,8,11a-pentamethyl-1-(prop-1-en-2-yl)-2,3,3a,4,5,5a,5b,6,7,7a,8,11,11a,11b,12,13,13a,13b-octadecahydro-1H-cyclopenta[a]chrysen-9-yl)benzoic acid], the figure is under 100 nM; as for `CC(C)[C@@H]1CC[C@]2([C@@H](O)CN(CCN(C)C)Cc3ccc(Cl)cc3)CC[C@]3(C)[C@H](CC[C@@H]4[C@@]5(C)CC=C(C6=CC[C@](CF)(C(=O)O)CC6)C(C)(C)[C@@H]5CC[C@]43C)[C@@H]12` (single isomer, unassigned) [Example 16], 130 nM.
As for `C=C(C)[C@@H]1CC[C@]2(CCN3CCS(=O)(=O)CC3)CC[C@]3(C)[C@H](CC[C@@H]4[C@@]5(C)CC=C(c6ccc(C(=O)O)cc6)C(C)(C)[C@@H]5CC[C@]43C)[C@@H]12` [Example 10, 4-((1R,3aR,5aR,5bR,7aR,11aS,11bR,13aR,13bR)-3a-(2-(1,1-dioxidothiomorpholino)ethyl)-5a,5b,8,8,11a-pentamethyl-1-(prop-1-en-2-yl)-2,3,3a,4,5,5a,5b,6,7,7a,8,11,11a,11b,12,13,13a,13b-octadecahydro-1H-cyclopenta[a]chrysen-9-yl)benzoic acid], the figure is under 100 nM.
The value for `C=C(C)[C@@H]1CC[C@]2(CCC(=O)N3CCS(=O)(=O)CC3)CC[C@]3(C)[C@H](CC[C@@H]4[C@@]5(C)CC=C(c6ccc(C(=O)O)cc6)C(C)(C)[C@@H]5CC[C@]43C)[C@@H]12` [Example 7, 4-((1R,3aR,5aR,5bR,7aR,11aS,11bR,13aR,13bR)-3a-(3-(1,1-dioxidothiomorpholino)-3-oxopropyl)-5a,5b,8,8,11a-pentamethyl-1-(prop-1-en-2-yl)-2,3,3a,4,5,5a,5b,6,7,7a,8,11,11a,11b,12,13,13a,13b-octadecahydro-1H-cyclopenta[a]chrysen-9-yl)benzoic acid] was 5.66 nM; that for `C=C(C)[C@@H]1CC[C@]2(C(=O)C(=O)NCCCN3CCS(=O)(=O)CC3)CC[C@]3(C)[C@H](CC[C@@H]4[C@@]5(C)CC=C(c6ccc(C(=O)O)cc6)C(C)(C)[C@@H]5CC[C@]43C)[C@@H]12` [Example 8, 4-((1R,3aS,5aR,5bR,7aR,11aS,11bR,13aR,13bR)-3a-(2-((3-(1,1-dioxidothiomorpholino)propyl)amino)-2-oxoacetyl)-5a,5b,8,8,11a-pentamethyl-1-(prop-1-en-2-yl)-2,3,3a,4,5,5a,5b,6,7,7a,8,11,11a,11b,12,13,13a,13b-octadecahydro-1H-cyclopenta[a]chrysen-9-yl)benzoic acid] was under 100 nM; that for `C=C(C)[C@@H]1CC[C@]2(/C=C/C(=O)O)CC[C@]3(C)[C@H](CC[C@@H]4[C@@]5(C)CC=C(c6ccc(C(=O)O)cc6)C(C)(C)[C@@H]5CC[C@]43C)[C@@H]12` [Example 1, 4-((1R,3aR,5aR,5bR,7aR,11aS,11bR,13aR,13bR)-3a-((E)-2-carboxyvinyl)-5a,5b,8,8,8,11a-pentamethyl-1-(prop-1-en-2-yl)-2,3,3a,4,5,5a,5b,6,7,7a,8,11,11a,11b,12,13,13a,13b-octadecahydro-1H-cyclopenta[a]chrysen-9-yl)benzoic acid] was 20 nM.
As for `C=C(C)[C@@H]1CC[C@]2(/C=C/C(=O)NCCN(C)C)CC[C@]3(C)[C@H](CC[C@@H]4[C@@]5(C)CC=C(c6ccc(C(=O)O)cc6)C(C)(C)[C@@H]5CC[C@]43C)[C@@H]12` [Example 2, 4-((1R,3aR,5aR,5bR,7aR,11aS,11bR,13aR,13bR)-3a-((E)-3-((2-(dimethylamino)ethyl)amino)-3-oxoprop-1-en-1-yl)-5a,5b,8,8,11a-pentamethyl-1-(prop-1-en-2-yl)-2,3,3a,4,5,5a,5b,6,7,7a,8,11,11a,11b,12,13,13a,13b-octadecahydro-1H-cyclopenta[a]chrysen-9-yl)benzoic acid], the EC50 was over 100 nM.
The value for `C=C(C)[C@@H]1CC[C@]2(CCNCCN3CCS(=O)(=O)CC3)CC[C@]3(C)[C@H](CC[C@@H]4[C@@]5(C)CC=C(c6ccc(C(=O)O)cc6)C(C)(C)[C@@H]5CC[C@]43C)[C@@H]12` [Example 11, 4-((1R,3aR,5aR,5bR,7aR,11aS,11bR,13aR,13bR)-3a-(2-((2-(1,1-dioxidothiomorpholino)ethyl)amino)ethyl)-5a,5b,8,8,11a-pentamethyl-1-(prop-1-en-2-yl)-2,3,3a,4,5,5a,5b,6,7,7a,8,11,11a,11b,12,13,13a,13b-octadecahydro-1H-cyclopenta[a]chrysen-9-yl)benzoic acid] was 1.24 nM.
